Target: T1, HECT of NEDD4 L553F (Homo sapiens, UniProt P46934, L972F)
T1 construct: 250 nM untagged HECT of NEDD4 WT or NEDD4 L553F or NEDD4L WT; made in house
T1 sequence (P46934 519-900 isoform P46934-4 L553F limits assumed): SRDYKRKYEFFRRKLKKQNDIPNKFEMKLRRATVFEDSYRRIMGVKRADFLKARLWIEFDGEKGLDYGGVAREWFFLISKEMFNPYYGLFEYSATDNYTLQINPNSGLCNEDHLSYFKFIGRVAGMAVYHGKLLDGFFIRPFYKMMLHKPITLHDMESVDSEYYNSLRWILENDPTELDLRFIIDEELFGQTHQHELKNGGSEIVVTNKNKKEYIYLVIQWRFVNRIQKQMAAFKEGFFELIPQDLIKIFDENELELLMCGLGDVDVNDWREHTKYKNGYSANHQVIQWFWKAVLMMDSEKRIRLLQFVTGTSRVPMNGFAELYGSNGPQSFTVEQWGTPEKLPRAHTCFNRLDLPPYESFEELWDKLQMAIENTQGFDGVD
Test: In vitro ubiquitination assay detected by western blot, HECT NEDD4 L553F mutant
Assay type: biochemical
Settings: 10 μM; FIG. 4c
Protocol: In vitro ubiquitination assay performed with HECT NEDD4 WT and HECT NEDD4L WT in presence of the indicated compounds at 10 μM concentration. The symbol “−” indicates the DMSO-treated sample. Reactions were stopped after 1 hour with Laemmli buffer. […] HECT of NEDD4 bound to compound 12 is shown in light grey, superposed with the structure of HECT of NEDD4L (pdb entry 2oni, version 1.2, 13 Jul. 2011, shown in dark grey). c. In vitro ubiquitination assay using the HECT of NEDD4 WT (HECT WT) and L553F (HECT L553F) was performed in presence of compound 12 at 10 μM concentration. The symbol “-” indicates the DMSO-treated sample. Immunoblot was performed with the anti-ubiquitin antibody (upper panel).
An in vitro ubiquitination assay followed by western blot detection was used to determine the selectivity of the different compounds. The full protocol is described in (E. Maspero et al. Methods Mol Biol. 1449:153-60 (2016)). Briefly, the assay was performed with bacterially purified enzymes (20 nM E1, 250 nM of purified His6-tagged UBE2D3 and 250 nM untagged HECT of NEDD4 WT or NEDD4 L553F or NEDD4L WT) and 1 μM of untagged ubiquitin in ubiquitination buffer (25 mM Tris-HCl, pH 7.6, 5 mM MgCl2, 100 mM NaCl, 0.2 μM DTT). […] The binding pocket determined by X-ray is highly conserved among the various members of the NEDD4 family with few important exceptions. […]

**Q.** Which “activity of compound on HECT NEDD4 L553F mutant (anti-ubiquitin immunoblot)” value does the source give for `CCOC(=O)/C=C/CNCCCCN1c2ccccc2CCc2ccc(Cl)cc21.O=C(O)/C=C\C(=O)O` [Compound 12, Ethyl (E)-4-[4-(3-chloro-10,11-dihydro-5H-dibenzo[b,f]azepin-5-yl)butylamino]but-2-enoate maleate] here?
**A.** fully abrogate the activity
